Measurements: the supplement of paper PMC11061612

Assays:
[1] = test system: NCI-H2085 (Non-Small Cell Lung Carcinoma); assay: combination Emax (second highest fraction inhibited in the dose matrix, 72 h); higher = more inhibition; extreme values may be limits of the assay
Procedure, shortened: (§1)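 Bliss excess equals the observed combination effect minus the expected value EA + EB − EA·EB, where EA and EB are the effects of each agent alone. Combination Emax is the second-highest inhibition within the matrix. Inhibition was scaled from CellTiter-Glo 2.0 luminescence, with 0 set by vehicle wells and 1 by blank wells, after 72 hours of two-drug dosing of cells plated in 1536-well plates.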

[2] = test system: HuP-T4 (Pancreatic Carcinoma); assay: as above
Procedure, shortened: as §1

[3] = test system: KYSE-520 (Esophageal Squamous Cell Carcinoma); assay: as above
Procedure, shortened: as §1

[4] = test system: ME-1 (Acute Myeloid Leukemia); assay: as above
Procedure, shortened: as §1

[5] = test system: LB831-BLC (Bladder Carcinoma); assay: as above
Procedure, shortened: as §1

KELLY (Neuroblastoma) = assay: as above
Procedure, shortened: as §1

[6] = test system: LU-135 (Small Cell Lung Carcinoma); assay: as above
Procedure, shortened: as §1

[7] = test system: HO-1-N-1 (Oral Cavity Carcinoma); assay: as above
Procedure, shortened: as §1

42-MG-BA (Glioblastoma) = assay: as above
Procedure, shortened: as §1

[8] = test system: HT-1376 (Bladder Carcinoma); assay: as above
Procedure, shortened: as §1

[9] = test system: OVCA420 (Ovarian Carcinoma); assay: as above
Procedure, shortened: as §1

HOS (Osteosarcoma) [10] = assay: as above
Procedure, shortened: as §1

AGS (Gastric Carcinoma) = assay: as above
Procedure, shortened: as §1

[11] = test system: LNCaP-Clone-FGC (Prostate Carcinoma); assay: as above
Procedure, shortened: as §1

[12] = test system: NCI-H2085 (Non-Small Cell Lung Carcinoma); assay: Bliss excess, mean over the matrix (fraction); higher = more synergy
Procedure, shortened: as §1

[13] = test system: RO82-W-1 (Thyroid Gland Carcinoma); assay: as above
Procedure, shortened: as §1

NOS-1 (Osteosarcoma) = assay: as above
Procedure, shortened: as §1

HOS (Osteosarcoma) [14] = assay: as above
Procedure, shortened: as §1

[15] = test system: CCRF-CEM (T-Lymphoblastic Leukemia); assay: as above
Procedure, shortened: as §1

Row | SMILES | combination Emax [1] | combination Emax [2] | combination Emax [3] | combination Emax [4] | combination Emax [5] | combination Emax (KELLY (Neuroblastoma)) | combination Emax [6] | combination Emax [7] | combination Emax (42-MG-BA (Glioblastoma)) | combination Emax [8] | combination Emax [9] | combination Emax (HOS (Osteosarcoma) [10]) | combination Emax (AGS (Gastric Carcinoma)) | combination Emax [11] | Bliss excess [12] | Bliss excess [13] | Bliss excess (NOS-1 (Osteosarcoma)) | Bliss excess (HOS (Osteosarcoma) [14]) | Bliss excess [15]
1 | Cc1cc2ncnn2cc1Nc1ncc2c(n1)n(C1CCOCC1)c(=O)n2C [AZD7648] + CCN(CCO)CCCOc1ccc2c(Nc3cc(CC(=O)Nc4cccc(F)c4)[nH]n3)ncnc2c1 [AZD2811] (first compound max 10 µM, 7x7, partner max 1 µM) | 0.717 | 0.342 | 0.337 | 0.27 | 0.258 | 0.692 | 0.893 | 0.826 | 0.472 | 0.235 | 0.232 | 0.273 | 0.529 | 0.535 | 0.0409 | -0.115 | -0.0036 | 0.0182 | -0.0396
2 | CCc1c2c(nc3ccc(O)cc13)-c1cc3c(c(=O)n1C2)COC(=O)[C@]3(O)CC [SN-38] + CN(C)CCCOc1ccc(-c2ccc3ncc4c(c3c2)n(C2CCOCC2)c(=O)n4C)cn1 [AZD0156] (first compound max 0.3 µM, 7x7, partner max 1 µM) | 0.221 | 0.96 | 0.284 | 0.571 | 0.723 | 0.869 | 0.728 | 1 | 1 | 0.118 | 0.171 | 0.893 | 0.814 | 0.76 | -0.0026 | -0.088 | -0.0111 | 0.0114 | 0.0508
3 | Cc1cc2ncnn2cc1Nc1ncc2c(n1)n(C1CCOCC1)c(=O)n2C [AZD7648] + C=CCn1c(=O)c2cnc(Nc3ccc(N4CCN(C)CC4)cc3)nc2n1-c1cccc(C(C)(C)O)n1 [AZD1775] (first compound max 10 µM, partner max 1 µM) | 0.512 | 0.288 | 0.4 | 0.355 | 0.455 | 0.993 | 0.56 | 0.532 | 0.439 | 0.408 | 0.418 | 0.369 | 0.736 | 0.775 | 0.0418 | 0.131 | -0.0145 | -0.0109 | 0.0337
4 | CN(C)CCCOc1ccc(-c2ccc3ncc4c(c3c2)n(C2CCOCC2)c(=O)n4C)cn1 [AZD0156] + CCN(CCO)CCCOc1ccc2c(Nc3cc(CC(=O)Nc4cccc(F)c4)[nH]n3)ncnc2c1 [AZD2811] (first compound max 1 µM, 7x7, partner max 1 µM) | 0.547 | 0.244 | 0.224 | 0.2 | 0.0797 | 0.684 | 0.925 | 0.74 | 0.444 | 0.0989 | 0.0163 | 0.0916 | 0.238 | 0.556 | -0.0194 | -0.0556 | -0.0114 | -0.0186 | 0.0045
5 | CCN(CCO)CCCOc1ccc2c(Nc3cc(CC(=O)Nc4cccc(F)c4)[nH]n3)ncnc2c1 [AZD2811] + C[C@@H]1COCCN1C2=NC(=NC(=C2)C3(CC3)[S@](=N)(=O)C)C4=C5C=CNC5=NC=C4 [AZD6738] (first compound max 1 µM, 7x7, partner max 10 µM) | 0.844 | 0.424 | 0.558 | 0.516 | 0.238 | 0.992 | 0.929 | 0.858 | 0.568 | 0.54 | 0.443 | 0.652 | 0.605 | 0.736 | -0.0913 | -0.0543 | 0.0036 | -0.0432 | -0.0295
6 | CCN(CCO)CCCOc1ccc2c(Nc3cc(CC(=O)Nc4cccc(F)c4)[nH]n3)ncnc2c1 [AZD2811] + C=CCn1c(=O)c2cnc(Nc3ccc(N4CCN(C)CC4)cc3)nc2n1-c1cccc(C(C)(C)O)n1 [AZD1775] (first compound max 1 µM, partner max 1 µM) | 0.688 | 0.27 | 0.306 | 0.299 | 0.456 | 1 | 0.921 | 0.848 | 0.522 | 0.333 | 0.179 | 0.298 | 0.6 | 0.699 | 0.0061 | -0.063 | 0.0045 | 0.0066 | 0.006
